Results published in US11903958B2, “Therapeutic agents and methods of producing same” (GLYCOSYNNOVATIONS PTY LTD, priority 2016, dated 2024).

Tests used:
recombinant human IL-13 = recombinant human IL-13 (Homo sapiens, UniProt P35225); assay: TF-1 cell proliferation bioassay with rhIL-13; type: cell-based; conditions: rhIL-13 4 ng/ml; inhibitor 10 μg/ml and 2.5 μg/ml; 48 hours; FIG. 1
Procedure: The various simplified sulphated glycoconjugates inhibited the proliferation of an IL-13 responsive cell line to differing degrees. This occurs at very low doses and is believed not to be due to a toxic effect of the glycoconjugates because other, similarly sulfated polysaccharides (e.g. sucrose octasulfate), at the same concentrations of IL-13 and polysaccharide have no effect. These experiments utilize the TF-1 cells that are grown in 2 ng/ml recombinant human (rh) GM-CSF. TF-1 cells were originally established from a bone marrow sample from a person with severe pancytopenia. These cells are dependent on IL-3 or GM-CSF for long term growth and are responsive to a variety of human cytokines including IL-13.
(§1) Briefly, proliferation assays were carried out in 96-well microplates suitable for such assays. […] When the effect of the different simplified sulfated glycoconjugates was measured, the wells also contained various concentrations of these molecules (10 μg/ml and 2.5 μg/ml) and the rhIL-13 concentration was held constant at 4 ng/ml. The cells proliferated for 48 hours, after which the number of cells present was quantified by staining with 20 μL per well of the CellTiter 96 Aqueous One reagent was incubated with TF1 cells for the last 3.5 to 4 hours of culture and then absorbance was read at 490 nm on an Enspire Multimode plate reader (PerkinElmer).

recombinant human IL-4 = target: T1, recombinant human IL-4 (Homo sapiens, UniProt P05112); assay: TF-1 cell proliferation bioassay with rhIL-4; type: cell-based; conditions: rhIL-4 4 ng/ml; inhibitor 10 μg/ml and 2.5 μg/ml; 48 hours; FIG. 3
T1 sequence (P05112 25-153): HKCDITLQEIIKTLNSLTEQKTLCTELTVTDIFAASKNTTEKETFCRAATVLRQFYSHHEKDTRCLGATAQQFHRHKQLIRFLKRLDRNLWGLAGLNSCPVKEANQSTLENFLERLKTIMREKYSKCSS
Procedure: The various simplified sulphated glyconjugates inhibited the proliferation of an IL-4 responsive cell line to differing degrees. This occurs at very low doses and is not due to a toxic effect of the glycoconjugate because other, similarly sulfated polysaccharides (sucrose octasulfate), at the same concentrations of IL-4 and polysaccharide have no effect. These experiments utilize the TF-1 cells that are grown in 2 ng/ml recombinant human (rh) GM-CSF. TF-1 cells were originally established from a bone marrow sample from a person with severe pancytopenia. These cells are dependent on IL-3 or GM-CSF for long term growth and are responsive to a variety of human cytokines including human IL-4.
as §1, with “rhIL-4” for “rhIL-13”

recombinant human IL-13, sequence (P35225 25-146): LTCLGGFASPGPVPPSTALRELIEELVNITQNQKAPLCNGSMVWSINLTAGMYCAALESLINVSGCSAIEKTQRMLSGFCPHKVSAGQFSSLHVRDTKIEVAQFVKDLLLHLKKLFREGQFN

SMILES: O=S(=O)(O)OC[C@H]1O[C@@](COS(=O)(=O)O)(O[C@H]2O[C@H](COS(=O)(=O)O)[C@@H](OS(=O)(=O)O)[C@H](OS(=O)(=O)O)[C@H]2OS(=O)(=O)O)[C@@H](OS(=O)(=O)O)[C@@H]1OS(=O)(=O)O [sucrose octasulfate]
- inhibition of IL-13 stimulated TF-1 cell proliferation (recombinant human IL-13): no effect
- inhibition of IL-4 stimulated TF-1 cell proliferation (recombinant human IL-4): no effect
